# Reference: article PMC11435058, “Synthesis of New Thiazole-Privileged Chalcones as Tubulin Polymerization Inhibitors with Potential Anticancer Activities” (Pharmaceuticals, 2024)
# Legend:
# [1] = system: HT-29; set-up: method as in doi:10.1080/00397911.2021.1884262; settings: HT-29 colorectal cancer cells; cited from earlier work
# [2] = system: Lovo; set-up: method as in doi:10.1080/00397911.2021.1884262; settings: Lovo colorectal cancer cells; cited from earlier work
# [3] = system: HCT-116; set-up: method as in doi:10.1080/00397911.2021.1884262; settings: HCT-116 colorectal cancer cells; cited from earlier work
# [4] = system: SK-OV-3; assay: NCI-60 anticancer screen (SRB; single dose and five doses); settings: Homo sapiens
# [5] = system: HCC-2998; assay: as above
# [6] = system: DU-145; assay: as above; settings: Homo sapiens
# [7] = system: COLO 205; assay: as above; settings: Homo sapiens
# [8] = system: OVCAR-5; assay: as above; settings: Homo sapiens
# [9] = system: tubulin; assay: In vitro tubulin polymerization inhibition assay; type: biochemical; settings: 4 mg/mL tubulin, 37°C, absorbance at 340 nm
# Procedure: 4.2.2. In Vitro Tubulin Polymerization Inhibition Assay.
# 2p, and the reference drug CD -4) with the microtubule system. Specifically, the in vitro inhibition of tubulin polymerization was evaluated for these compounds. The standard tubulin polymerization reaction was carried out, containing 100 μL of 4 mg/mL tubulin in a buffer solution of 80 mM PIPES (pH 6.9), 0.5 mM EGTA, 2 mM MgCl2, and 1 mM GTP. Polymerization was initiated by incubating the reaction […]
# Under these conditions, polymerization typically reaches a maximum absorbance of […]
# growth, and steady state. In this experimental set up, an absorbance of 0.1 at 340 nm corresponds to approximately 1 mg/mL of polymerized tubulin, meaning that around […]
# 40% of the tubulin is polymerized, allowing for the detection of both enhancers and inhibitors of polymerization. The inhibitory effect of each compound on tubulin polymerization was quantified by determining the IC50 values, which were reported as the mean ± standard deviation from three independent experiments. […]
# [10] = system: T-47D; assay: NCI-60 anticancer screen (SRB; single dose and five doses); settings: Homo sapiens, T47D
# [11] = system: HT29; assay: as above; settings: Homo sapiens
# [12] = system: OVCAR-4; assay: as above; settings: Homo sapiens
# [13] = system: SNB-75; assay: as above
# [14] = system: 786-0; assay: as above; settings: Homo sapiens
# [15] = system: EKVX; assay: as above; settings: Homo sapiens
# [16] = system: SK-MEL-28; assay: as above; settings: Homo sapiens
# [17] = system: UACC-62; assay: as above; settings: Homo sapiens
# [18] = system: UO-31; assay: as above; settings: Homo sapiens
# [19] = system: TK-10; assay: as above; settings: Homo sapiens
# [20] = system: CAKI-1; assay: as above; settings: Homo sapiens
# [21] = system: IGROV1; assay: as above; settings: Homo sapiens
# [22] = system: HS 578T; assay: as above; settings: Homo sapiens
# [23] = system: BT-549; assay: as above; settings: Homo sapiens
compound,measurement,setting,value
Cc1nc(-c2ccc(C(F)(F)F)cc2)sc1C(=O)/C=C/c1ccc(C(=O)O)cc1 [V],IC50,[1],7.94 µM
same,IC50,[2],2.21 µM
same,IC50,[3],3.12 µM
"COc1ccc(/C=C\c2cc(OC)c(OC)c(OC)c2)cc1O [CA-4, Combretastatin-A4, reference compound]",GI50,[4]; SK-OV-3,28.4 µM
same,CC50,"[4]; SK-OV-3, read-out: LC50",89.5 µM
same,IC (TGI),"[4]; SK-OV-3, read-out: TGI",0.36 µM
same,GI50,"[5]; Homo sapiens, HCC 2998",0.05 µM
same,CC50,"[5]; Homo sapiens, HCC 2998, read-out: LC50",26.9 µM
same,TGI,"[5]; five-dose, Colon Cancer HCC-2998",1.22 µM
same,GI50,[6]; DU-145,0.01 µM
same,CC50,"[6]; DU-145, read-out: LC50",> 100 µM
same,IC (TGI),"[6]; DU-145, read-out: TGI",78.9 µM
same,GI50,[7]; COLO 205,2.49 µM
same,CC50,"[7]; COLO 205, read-out: LC50",> 100 µM
same,IC (TGI),"[7]; COLO 205, read-out: TGI",43.2 µM
same,GI50,[8]; OVCAR-5,0.18 µM
same,CC50,"[8]; OVCAR-5, read-out: LC50",> 100 µM
same,IC (TGI),"[8]; OVCAR-5, read-out: TGI",83.2 µM
same,GI50,[10],48 µM
same,CC50,[10]; read-out: LC50,> 100 µM
same,IC (TGI),[10]; read-out: TGI,2.04 µM
same,GI50,[11]; HT-29,0.66 µM
same,CC50,"[11]; HT-29, read-out: LC50",38.7 µM
same,IC (TGI),"[11]; HT-29, read-out: TGI",5.51 µM
same,GI50,[12]; OVCAR-4,0.26 µM
same,CC50,"[12]; OVCAR-4, read-out: LC50",20.2 µM
same,IC (TGI),"[12]; OVCAR-4, read-out: TGI",0.16 µM
same,GI50,"[13]; Homo sapiens, SNB-75",0.83 µM
same,CC50,"[13]; Homo sapiens, SNB-75, read-out: LC50",82.4 µM
same,TGI,"[13]; five-dose, CNS Cancer SNB-75",24.72 µM
same,GI50,[14]; 786-0,0.02 µM
same,CC50,"[14]; 786-0, read-out: LC50",> 100 µM
same,IC (TGI),"[14]; 786-0, read-out: TGI",> 100 µM
same,GI50,[15],0.36 µM
same,CC50,[15]; read-out: LC50,> 100 µM
same,IC (TGI),[15]; read-out: TGI,82 µM
same,GI50,[16]; SK-MEL-28,3.16 µM
same,CC50,"[16]; SK-MEL-28, read-out: LC50",90.8 µM
same,IC (TGI),"[16]; SK-MEL-28, read-out: TGI",82.4 µM
same,GI50,[17]; UACC-62,0.01 µM
same,IC (TGI),"[17]; UACC-62, read-out: TGI",80.5 µM
same,GI50,[18]; UO-31,0.19 µM
same,IC (TGI),"[18]; UO-31, read-out: TGI",4.16 µM
same,GI50,[19]; TK-10,0.57 µM
same,CC50,"[19]; TK-10, read-out: LC50",> 100 µM
same,IC (TGI),"[19]; TK-10, read-out: TGI",11.5 µM
same,GI50,[20]; CAKI-1,0.04 µM
same,CC50,"[20]; CAKI-1, read-out: LC50",97 µM
same,IC (TGI),"[20]; CAKI-1, read-out: TGI",8.22 µM
same,GI50,[21]; IGROV-1,0.06 µM
same,CC50,"[21]; IGROV-1, read-out: LC50",> 100 µM
same,IC (TGI),"[21]; IGROV-1, read-out: TGI",63.5 µM
same,GI50,[22],0.15 µM
same,CC50,[22]; read-out: LC50,> 100 µM
same,IC (TGI),[22]; read-out: TGI,0.22 µM
same,GI50,[23]; BT-549,0.01 µM
same,IC (TGI),"[23]; BT-549, read-out: TGI",8.09 µM
